Experimental data reported in ChEMBL document CHEMBL1156331, “7-Phenylplatensimycin and 11-methyl-7-phenylplatensimycin: more potent analogs of platensimycin” (2010).
Converted amounts (≈) assume the structure as drawn.

What was measured:
Type in all cases: functional
[1] = test system: Staphylococcus aureus; assay: Antimicrobial activity against methicillin-sensitive Staphylococcus aureus isolate 1
[2] = test system: Staphylococcus aureus; assay: Antimicrobial activity against methicillin-sensitive Staphylococcus aureus isolate 2
[3] = test system: Staphylococcus aureus; assay: Antimicrobial activity against methicillin-sensitive Staphylococcus aureus isolate 3
[4] = test system: Staphylococcus aureus; assay: Antimicrobial activity against methicillin-sensitive Staphylococcus aureus isolate 4
[5] = test system: Staphylococcus aureus; assay: Antimicrobial activity against methicillin-resistant Staphylococcus aureus isolate 5
[6] = test system: Staphylococcus aureus; assay: Antimicrobial activity against methicillin-resistant Staphylococcus aureus isolate 6
[7] = test system: Staphylococcus aureus; assay: Antimicrobial activity against methicillin-resistant Staphylococcus aureus isolate 7
[8] = test system: Staphylococcus aureus; assay: Antimicrobial activity against methicillin-resistant Staphylococcus aureus isolate 8
[9] = test system: Staphylococcus aureus; assay: Antimicrobial activity against vancomycin-insensitive Staphylococcus aureus isolate 9
[10] = test system: Staphylococcus aureus; assay: Antimicrobial activity against vancomycin-insensitive Staphylococcus aureus isolate 10
[11] = test system: Enterococcus faecalis; assay: Antimicrobial activity against vancomycin-sensitive Enterococcus faecalis isolate 11
[12] = test system: Enterococcus faecalis; assay: Antimicrobial activity against vancomycin-resistant Enterococcus faecalis isolate 12
[13] = test system: Enterococcus faecalis; assay: Antimicrobial activity against vancomycin-resistant Enterococcus faecalis isolate 13
[14] = test system: Enterococcus faecium; assay: Antimicrobial activity against vancomycin-resistant Enterococcus faecium isolate 14
[15] = test system: Enterococcus faecium; assay: Antimicrobial activity against vancomycin-resistant Enterococcus faecium isolate 15

Compound | MIC [1] [µg/mL] | MIC [2] [µg/mL] | MIC [3] [µg/mL] | MIC [4] [µg/mL] | MIC [5] [µg/mL] | MIC [6] [µg/mL] | MIC [7] [µg/mL] | MIC [8] [µg/mL] | MIC [9] [µg/mL] | MIC [10] [µg/mL] | MIC [11] [µg/mL] | MIC [12] [µg/mL] | MIC [13] [µg/mL] | MIC [14] [µg/mL] | MIC [15] [µg/mL]
CC12CC34CC1CC(O2)C3C(C)(CCC(=O)Nc1c(O)ccc(C(=O)O)c1O)C(=O)C=C4c1ccccc1 (stereo not drawn) | 0.25 (≈ 0.483 µM) | 0.5 (≈ 0.966 µM) | 2 (≈ 3.86 µM) | < 0.25 | < 0.25 | < 0.25 | < 0.25 | 0.5 (≈ 0.966 µM) | 1 (≈ 1.93 µM) | 1 (≈ 1.93 µM) | ≤ 0.5 | 8 (≈ 15.5 µM) | 16 (≈ 30.9 µM) | 2 (≈ 3.86 µM) | ≤ 0.5
C[C@@H]1C2OC3(C)CC4(CC13)C(c1ccccc1)=CC(=O)C(C)(CCC(=O)Nc1c(O)ccc(C(=O)O)c1O)C24 (stereo partly drawn) | < 0.25 | 0.5 (≈ 0.941 µM) | 0.5 (≈ 0.941 µM) | < 0.25 | < 0.25 | < 0.25 | < 0.25 | < 0.25 | 1 (≈ 1.88 µM) | 4 (≈ 7.52 µM) | 8 (≈ 15 µM) | 16 (≈ 30.1 µM) | 8 (≈ 15 µM) | 2 (≈ 3.76 µM) | ≤ 0.5
C[C@@H]1C2OC3(C)CC4(C=CC(=O)C(C)(CCC(=O)Nc5c(O)ccc(C(=O)O)c5O)C24)CC13 (stereo partly drawn) | 0.25 (≈ 0.549 µM) | 1 (≈ 2.2 µM) | 8 (≈ 17.6 µM) | < 0.25 | 0.25 (≈ 0.549 µM) | 0.5 (≈ 1.1 µM) | 0.5 (≈ 1.1 µM) | 1 (≈ 2.2 µM) | 2 (≈ 4.39 µM) | 8 (≈ 17.6 µM) | 1 (≈ 2.2 µM) | 32 (≈ 70.3 µM) | 64 (≈ 141 µM) | 2 (≈ 4.39 µM) | 1 (≈ 2.2 µM)
CC12CC34C=CC(=O)C(C)(CCC(=O)Nc5c(O)ccc(C(=O)O)c5O)C3C(O1)[C@@H](Br)C2C4 (stereo partly drawn) | 1 (≈ 1.92 µM) | 8 (≈ 15.4 µM) | 32 (≈ 61.5 µM) | 1 (≈ 1.92 µM) | 1 (≈ 1.92 µM) | 2 (≈ 3.84 µM) | 1 (≈ 1.92 µM) | 4 (≈ 7.69 µM) | 8 (≈ 15.4 µM) | 16 (≈ 30.7 µM) | 4 (≈ 7.69 µM) | 128 (≈ 246 µM) | > 128 | 4 (≈ 7.69 µM) | 16 (≈ 30.7 µM)
CC1=CC(=O)C(C)(CCC(=O)Nc2c(O)ccc(C(=O)O)c2O)C2C3CC4CC12CC4(C)O3 (stereo not drawn) | 0.5 (≈ 1.1 µM) | 4 (≈ 8.78 µM) | 2 (≈ 4.39 µM) | 0.5 (≈ 1.1 µM) | 1 (≈ 2.2 µM) | 0.5 (≈ 1.1 µM) | 0.25 (≈ 0.549 µM) | 2 (≈ 4.39 µM) | 4 (≈ 8.78 µM) | 4 (≈ 8.78 µM) | ≤ 0.5 | 8 (≈ 17.6 µM) | 16 (≈ 35.1 µM) | 2 (≈ 4.39 µM) | ≤ 0.5
CC1(CCC(=O)Nc2c(O)ccc(C(=O)O)c2O)C(=O)C=CC23CC4CC(OC4(c4ccccc4)C2)C31 (stereo not drawn) | 2 (≈ 3.97 µM) | 8 (≈ 15.9 µM) | 8 (≈ 15.9 µM) | 1 (≈ 1.99 µM) | 1 (≈ 1.99 µM) | 2 (≈ 3.97 µM) | 2 (≈ 3.97 µM) | 4 (≈ 7.94 µM) | 16 (≈ 31.8 µM) | 16 (≈ 31.8 µM) | ≤ 0.5 | 16 (≈ 31.8 µM) | 16 (≈ 31.8 µM) | 8 (≈ 15.9 µM) | ≤ 0.5
CC12CC34C=CC(=O)C(C)(CCC(=O)Nc5c(O)ccc(C(=O)O)c5O)C3C(O1)[C@@H](Cl)C2C4 (stereo partly drawn) | 1 (≈ 2.1 µM) | 8 (≈ 16.8 µM) | 8 (≈ 16.8 µM) | 0.5 (≈ 1.05 µM) | 0.25 (≈ 0.525 µM) | 0.5 (≈ 1.05 µM) | 0.25 (≈ 0.525 µM) | 4 (≈ 8.4 µM) | 8 (≈ 16.8 µM) | 8 (≈ 16.8 µM) | 2 (≈ 4.2 µM) | 64 (≈ 134 µM) | 64 (≈ 134 µM) | 8 (≈ 16.8 µM) | 2 (≈ 4.2 µM)
Cc1onc(-c2ccccc2)c1C(=O)N[C@@H]1C(=O)N2[C@@H]1SC(C)(C)[C@@H]2C(=O)O [OXACILLIN] | < 0.25 | < 0.25 | < 0.25 | < 0.25 | > 32 | > 32 | > 32 | > 32 | > 32 | > 32 | – | – | – | – | –
CC12C[C@@]34C=CC(=O)[C@@](C)(CCC(=O)Nc5c(O)ccc(C(=O)O)c5O)C3[C@H](CC1C4)O2 (stereo partly drawn) [PLATENSIMYCIN] | 1 (≈ 2.27 µM) | 2 (≈ 4.53 µM) | 8 (≈ 18.1 µM) | < 0.25 | 0.25 (≈ 0.566 µM) | 0.25 (≈ 0.566 µM) | 0.25 (≈ 0.566 µM) | 1 (≈ 2.27 µM) | 2 (≈ 4.53 µM) | 2 (≈ 4.53 µM) | ≤ 0.5 | 8 (≈ 18.1 µM) | 8 (≈ 18.1 µM) | ≤ 0.5 | ≤ 0.5
CN[C@H](CC(C)C)C(=O)N[C@H]1C(=O)N[C@@H](CC(N)=O)C(=O)N[C@H]2C(=O)N[C@H]3C(=O)N[C@H](C(=O)N[C@H](C(=O)O)c4cc(O)cc(O)c4-c4cc3ccc4O)[C@H](O)c3ccc(c(Cl)c3)Oc3cc2cc(c3O[C@@H]2O[C@H](CO)[C@@H](O)[C@H](O)[C@H]2O[C@H]2C[C@](C)(N)[C@H](O)[C@H](C)O2)Oc2ccc(cc2Cl)[C@H]1O [VANCOMYCIN] | – | – | – | – | – | – | – | – | – | – | 2 (≈ 1.38 µM) | – | – | > 128 | > 128
